Results taken from ChEMBL document CHEMBL4715876 (J Med Chem, 2020).
≈ marks a conversion by molar mass, not a printed value.

Experiments:
[1] = Lipophilicity, log D of compound at pH 7.4; type: physicochemical; conditions: buffer
[2] = Solubility of the compound; type: physicochemical
[3] = Tmax in BALB/C mouse at 10 mg/kg, po measured upto 24 hrs by LC-MS analysis; type: ADME, organism-based; conditions: in vivo
[4] = Cmax in BALB/C mouse at 10 mg/kg,po measured upto 24 hrs by LC-MS analysis; type: ADME, organism-based; set-up: route oral, dose 10 mg/kg, time <= 24; conditions: in vivo
[5] = AUClast in BALB/C mouse at 10 mg/kg,po measured upto 24 hrs by LC-MS analysis; type: ADME, organism-based; set-up: route oral, dose 10 mg/kg, time <= 24; conditions: in vivo
[6] = Oral bioavailability in BALB/C mouse at 10 mg/kg measured upto 24 hrs by LC-MS analysis; type: ADME, organism-based; conditions: in vivo
[7] = Tmax in BALB/C mouse at 1 mg/kg, iv measured upto 24 hrs by LC-MS analysis; type: ADME, organism-based; conditions: in vivo
[8] = Cmax in BALB/C mouse at 1 mg/kg, iv measured upto 24 hrs by LC-MS analysis; type: ADME, organism-based; set-up: route intravenous, dose 1 mg/kg, time <= 24; conditions: in vivo
[9] = AUClast in BALB/C mouse at 1 mg/kg, iv measured upto 24 hrs by LC-MS analysis; type: ADME, organism-based; set-up: route intravenous, dose 1 mg/kg, time <= 24; conditions: in vivo
[10] = Volume of distribution at steady state in BALB/C mouse at 1 mg/kg, iv measured upto 24 hrs by LC-MS analysis; type: ADME, organism-based; conditions: in vivo, read-out: Vdss
[11] = Tmax in Sprague-Dawley rat at 10 mg/kg, po measured upto 24 hrs by LC-MS/MS analysis; type: ADME, organism-based; conditions: in vivo
[12] = Cmax in Sprague-Dawley rat at 10 mg/kg, po measured upto 24 hrs by LC-MS/MS analysis; type: ADME, organism-based; set-up: route oral, dose 10 mg/kg, time <=24; conditions: in vivo
[13] = AUClast in Sprague-Dawley rat at 10 mg/kg, po measured upto 24 hrs by LC-MS/MS analysis; type: ADME, organism-based; set-up: route oral, dose 10 mg/kg, time <=24; conditions: in vivo
[14] = Oral bioavailability in Sprague-Dawley rat at 10 mg/kg measured upto 24 hrs by LC-MS/MS analysis; type: ADME, organism-based; conditions: in vivo
[15] = Drug uptake in CB.17 SCID mouse tumor xenografted with OCI-LY10 cells at 3 mg/kg, po once daily for 24 days; type: ADME, organism-based, Neoplasm; conditions: time 24 day, read-out: Drug uptake
[16] = Drug uptake in CB.17 SCID mouse tumor xenografted with OCI-LY10 cells at 1 mg/kg, po once daily for 24 days; type: ADME, organism-based, Neoplasm; conditions: time 24 day, read-out: Drug uptake
[17] = Drug uptake in CB.17 SCID mouse tumor xenografted with OCI-LY10 cells at 10 mg/kg, po once daily for 24 days; type: ADME, organism-based, Neoplasm; conditions: time 24 day, read-out: Drug uptake
[18] = Drug uptake in CB.17 SCID mouse tumor xenografted with OCI-LY10 cells at 30 mg/kg, po once daily for 24 days; type: ADME, organism-based, Neoplasm; conditions: time 24 day, read-out: Drug uptake
[19] = Plasma concentration in CB.17 SCID mouse xenografted with OCI-LY10 cells at 3 mg/kg, po once daily for 24 days; type: ADME, organism-based; conditions: time 24 day
[20] = Plasma concentration in CB.17 SCID mouse xenografted with OCI-LY10 cells at 1 mg/kg, po once daily for 24 days; type: ADME, organism-based; conditions: time 24 day
[21] = Plasma concentration in CB.17 SCID mouse xenografted with OCI-LY10 cells at 10 mg/kg, po once daily for 24 days; type: ADME, organism-based; conditions: time 24 day
[22] = Plasma concentration in CB.17 SCID mouse xenografted with OCI-LY10 cells at 30 mg/kg, po once daily for 24 days; type: ADME, organism-based; conditions: time 24 day
[23] = Drug uptake in CB.17 SCID mouse tumor xenografted with TMD-8 cells at 3 mg/kg, po once daily for 19 days; type: ADME, organism-based, Neoplasm; conditions: time 19 day, read-out: Drug uptake
[24] = Drug uptake in CB.17 SCID mouse tumor xenografted with TMD-8 cells at 1 mg/kg, po once daily for 19 days; type: ADME, organism-based, Neoplasm; conditions: time 19 day, read-out: Drug uptake
[25] = Drug uptake in CB.17 SCID mouse tumor xenografted with TMD-8 cells at 10 mg/kg, po once daily for 19 days; type: ADME, organism-based, Neoplasm; conditions: time 19 day, read-out: Drug uptake
[26] = Drug uptake in CB.17 SCID mouse xenografted with TMD-8 cells tumor at 30 mg/kg, po once daily for 19 days; type: ADME, organism-based, Neoplasm; conditions: time 19 day, read-out: Drug uptake
[27] = Plasma concentration in CB.17 SCID mouse xenografted with TMD-8 cells at 3 mg/kg, po once daily for 19 days; type: ADME, organism-based; conditions: time 19 day
[28] = Plasma concentration in CB.17 SCID mouse xenografted with TMD-8 cells at 1 mg/kg, po once daily for 19 days; type: ADME, organism-based; conditions: time 19 day
[29] = Plasma concentration in CB.17 SCID mouse xenografted with TMD-8 cells at 10 mg/kg, po once daily for 19 days; type: ADME, organism-based; conditions: time 19 day
[30] = Plasma concentration in CB.17 SCID mouse xenografted with TMD-8 cells at 30 mg/kg, po once daily for 19 days; type: ADME, organism-based; conditions: time 19 day
[31] = Drug uptake in CB.17 SCID mouse tumor xenografted with SUDHL-6 cells assessed as effect on body weight at 5 mg/kg, po once daily for 15 days; type: ADME, organism-based, Neoplasm; conditions: time 15 day, read-out: Drug uptake
[32] = Plasma concentration in CB.17 SCID mouse tumor xenografted with SUDHL-6 cells assessed as effect on body weight at 5 mg/kg, po once daily for 15 days; type: ADME, organism-based; conditions: time 15 day
[33] = Free drug concentration in CB.17 SCID mouse xenografted with OCI-LY10 cells at 30 mg/kg, po once daily for 24 days; type: ADME, organism-based; conditions: in vivo, 576 h, time 24 day
[34] = Free drug concentration in CB.17 SCID mouse xenografted with TMD-8 cells at 30 mg/kg, po once daily for 19 days; type: ADME, organism-based; conditions: in vivo, 456 h, time 19 day
[35] = Volume of distribution at steady state in Beagle dog at 1 mg/kg, iv measured upto 24 hrs by LC-MS/MS analysis; type: ADME, organism-based, Canis lupus familiaris; conditions: beagle, in vivo, read-out: Vdss
[36] = Tmax in Sprague-Dawley rat at 1 mg/kg, iv measured upto 24 hrs by LC-MS/MS analysis; type: ADME, organism-based; conditions: in vivo
[37] = Cmax in Sprague-Dawley rat at 1 mg/kg, iv measured upto 24 hrs by LC-MS/MS analysis; type: ADME, organism-based; set-up: route intravenous, dose 1 mg/kg, time <=24; conditions: in vivo
[38] = AUClast in Sprague-Dawley rat at 1 mg/kg, iv measured upto 24 hrs by LC-MS/MS analysis; type: ADME, organism-based; set-up: route intravenous, dose 1 mg/kg, time <=24; conditions: in vivo
[39] = Volume of distribution at steady state in Sprague-Dawley rat at 1 mg/kg, iv measured upto 24 hrs by LC-MS/MS analysis; type: ADME, organism-based; conditions: in vivo, read-out: Vdss

Question: Which logD [1] does the source give for `C[C@H](Nc1nc(N)nc(N)c1C#N)c1c(-c2ccccc2)c(=O)n2cc(F)ccc2c1-c1ccccc1` here?
Answer: Its logD is 2.49.

Question: And the solubility [2]?
Answer: The solubility was 50.6 µM (≈ 24.9 µg/mL).

Question: For `Cc1c([C@H](C)Nc2nc(N)nc(N)c2C#N)c(-c2ccccc2)c(=O)n2cc(F)ccc12`, which Tmax [3] is on record?
Answer: Its Tmax is 30 min.

Question: What about the Cmax [4] of the same molecule?
Answer: The Cmax was 2100 nM.

Question: What about the AUC(0-t) at 24 h [5] of the same molecule?
Answer: The AUC(0-t) at 24 h was 2.4 µM·h.

Question: And the bioavailability [6]?
Answer: Its bioavailability is 30%.

Question: And the Tmax [7]?
Answer: Its Tmax is 4.8 min.

Question: What about the Cmax [8] of the same molecule?
Answer: The Cmax was 1300 nM.

Question: And the AUC(0-t) at 24 h [9]?
Answer: Its AUC(0-t) at 24 h is 0.8 µM·h.

Question: What about the Vd [10] of the same molecule?
Answer: The Vd was 1.7 L/kg.

Question: Which Tmax [3] does the source give for `C[C@H](Nc1nc(N)nc(N)c1C#N)c1c(-c2ccccc2)c(=O)n2cc(F)ccc2c1-c1ccc(F)cc1` here?
Answer: The Tmax was 60 min.

Question: What about the Cmax [4] of the same molecule?
Answer: Its Cmax is 7500 nM.

Question: And the AUC(0-t) at 24 h [5]?
Answer: Its AUC(0-t) at 24 h is 22 µM·h.

Question: And the bioavailability [6]?
Answer: The bioavailability was 39%.

Question: And the Tmax [7]?
Answer: The Tmax was 4.8 min.

Question: What about the Cmax [8] of the same molecule?
Answer: The Cmax was 2300 nM.

Question: And the AUC(0-t) at 24 h [9]?
Answer: Its AUC(0-t) at 24 h is 5.7 µM·h.

Question: What about the Vd [10] of the same molecule?
Answer: Its Vd is 0.7 L/kg.

Question: And the logD [1]?
Answer: Its logD is 2.38.

Question: What about the solubility [2] of the same molecule?
Answer: Its solubility is 68.5 µM (≈ 34.9 µg/mL).

Question: What about the Tmax [11] of the same molecule?
Answer: The Tmax was 120 min.

Question: What about the Cmax [12] of the same molecule?
Answer: Its Cmax is 4800 nM.

Question: And the AUC(0-t) at 24 h [13]?
Answer: The AUC(0-t) at 24 h was 36 µM·h.

Question: What about the bioavailability [14] of the same molecule?
Answer: The bioavailability was 33%.

Question: And the concentration at 576 h [15]?
Answer: Its concentration at 576 h is 380 nM.

Question: What about the concentration at 576 h [16] of the same molecule?
Answer: The concentration at 576 h was 130 nM.

Question: What about the concentration at 576 h [17] of the same molecule?
Answer: Its concentration at 576 h is 960 nM.

Question: And the concentration at 576 h [18]?
Answer: Its concentration at 576 h is 3250 nM.

Question: And the concentration at 576 h [19]?
Answer: The concentration at 576 h was 710 nM.

Question: What about the concentration at 576 h [20] of the same molecule?
Answer: The concentration at 576 h was 180 nM.

Question: What about the concentration at 576 h [21] of the same molecule?
Answer: Its concentration at 576 h is 1720 nM.

Question: And the concentration at 576 h [22]?
Answer: The concentration at 576 h was 5220 nM.

Question: What about the concentration at 456 h [23] of the same molecule?
Answer: Its concentration at 456 h is 630 nM.

Question: What about the concentration at 456 h [24] of the same molecule?
Answer: The concentration at 456 h was 170 nM.

Question: And the concentration at 456 h [25]?
Answer: Its concentration at 456 h is 1650 nM.

Question: What about the concentration at 456 h [26] of the same molecule?
Answer: Its concentration at 456 h is 4080 nM.

Question: And the concentration at 456 h [27]?
Answer: The concentration at 456 h was 700 nM.

Question: What about the concentration at 456 h [28] of the same molecule?
Answer: The concentration at 456 h was 210 nM.

Question: What about the concentration at 456 h [29] of the same molecule?
Answer: The concentration at 456 h was 2670 nM.

Question: And the concentration at 456 h [30]?
Answer: Its concentration at 456 h is 5500 nM.

Question: And the concentration at 360 h [31]?
Answer: The concentration at 360 h was 200 nM.

Question: And the concentration at 360 h [32]?
Answer: Its concentration at 360 h is 380 nM.

Question: And the “Drug uptake(free)” value [33]?
Answer: Its value is 157.6 nM.

Question: And the “Drug uptake(free)” value [34]?
Answer: Its value is 166.1 nM.

Question: And the Vd [35]?
Answer: Its Vd is 0.4 L/kg.

Question: What about the Tmax [36] of the same molecule?
Answer: The Tmax was 4.8 min.

Question: What about the Cmax [37] of the same molecule?
Answer: The Cmax was 1700 nM.

Question: What about the AUC(0-t) at 24 h [38] of the same molecule?
Answer: Its AUC(0-t) at 24 h is 11 µM·h.

Question: And the Vd [39]?
Answer: The Vd was 1 L/kg.

Question: Which logD [1] does the source give for `Cc1nc(N)nc(N[C@@H](C)c2c(-c3ccccc3)c(=O)n3cc(F)ccc3c2-c2ccc(F)cc2)c1C#N` here?
Answer: Its logD is 3.26.

Question: And the solubility [2]?
Answer: The solubility was 44.9 µM (≈ 22.9 µg/mL).
